Assays:
[1] = NaVC consumption on ultra heat treat of the formulated soymilk powder; type: physicochemical
Excerpt: As shown in Table (26), the formulated soymilk powder consists of NaVC (sodium vitamin C), lactic acid bacteria, saccharomycete, and maltodextrin, in which the lactic acid bacteria is NTU 101 lactic acid bacteria powder, the saccharomycete is yeast powder with vitamin B complex. Moreover, it must note that, when manufacturing the formulated soymilk powder, it must pre-add 25% NaVC in the formulated soymilk powder because there has 25% NaVC consumption when processing ultra heat treat of the formulated soymilk powder.

[2] = first experiment: in vitro digestion and dialysis of soymilk with ascorbic acid or calcium ascorbate, releasable iron; type: in vitro ADME
Excerpt: For improving that, a first experiment in the present invention is done, that is, to respectively add the ascorbic acid and the calcium ascorbate into the soymilk and determine the concentration of the releasable iron thereof. Please refer to following Table (1), which is a statistical table of the releasable iron concentration in the soymilk.

[3] = fifth experiment: releasable iron in soymilk with 30 ppm ferrous gluconate and VC, NaVC, KVC or CaVC additive; type: in vitro ADME; details: soymilk with 30 ppm ferrous gluconate
Excerpt: (§1) In which, “in vitro digestion and dialysis” is used in the experiments for determining the releasable iron in human body after the foods are digested.

[4] = aqueous solution of ferrous sulfate with 100 ppm iron ions
Excerpt: as §1
Firstly, iron(II) sulfate heptahydrate is used as a standard in the experiment, and the in vitro digestion and dialysis of the iron(II) sulfate heptahydrate is done.

[5] = soymilk with 20 ppm iron as ferrous sulfate
Excerpt: as §1
Next, in the second experiment, it respectively adds different additive dosage of vitamin C, sodium vitamin C, potassium vitamin C, and calcium vitamin C into the soymilk with 20 ppm ferrous sulfate for testing the effect of encouraging the release of iron ions.

[6] = second experiment: releasable iron in soymilk with iron salts added by concentration gradients
Excerpt: as §1

[7] = average additive dosage of ascorbic acid ions 25 ppm
[8] = average additive dosage of ascorbic acid ions 50 ppm
[9] = average additive dosage of ascorbic acid ions 75 ppm
[10] = average additive dosage of ascorbic acid ions 100 ppm
[11] = average additive dosage of ascorbic acid ions 125 ppm
[12] = average additive dosage of ascorbic acid ions 150 ppm
[13] = average additive dosage of ascorbic acid ions 175 ppm
[14] = average additive dosage of ascorbic acid ions 200 ppm
[15] = average additive dosage of ascorbic acid ions 225 ppm
[16] = average additive dosage of ascorbic acid ions 250 ppm
[17] = average additive dosage of ascorbic acid ions 275 ppm
[18] = average additive dosage of ascorbic acid ions 300 ppm
[19] = average additive dosage of ascorbic acid ions 325 ppm
[20] = average additive dosage of ascorbic acid ions 350 ppm
[21] = average additive dosage of ascorbic acid ions 375 ppm
[22] = average additive dosage of ascorbic acid ions 400 ppm
[23] = average additive dosage of ascorbic acid ions 425 ppm
[24] = average additive dosage of ascorbic acid ions 450 ppm
[25] = average additive dosage of ascorbic acid ions 475 ppm
[26] = average additive dosage of ascorbic acid ions 500 ppm

O=C1O[C@H]([C@@H](O)CO)C([O-])=C1O.[Na+] [NaVC, sodium ascorbate]
NaVC consumption when processing ultra heat treat [1]: 25%

O=C1O[C@H]([C@@H](O)CO)C(O)=C1O [VC, ascorbic acid]
iron release rate ([2]; 75 mg/100 mL): 51.75% | relative release rate ([2]; 75 mg/100 mL): 102.7% | releasable iron ([2]; 75 mg/100 mL): 2.07 ppm | iron release rate ([2]; 175 mg/100 mL): 78.75% | relative release rate ([2]; 175 mg/100 mL): 156.28% | releasable iron ([2]; 175 mg/100 mL): 3.15 ppm

O=C1O[C@H]([C@@H](O)CO)C(O)=C1O [ascorbic acid ions]
average iron release rate [3, 7]: 16.90% | average relative release rate [3, 7]: 33.55% | average iron release rate [3, 8]: 23.17% | average relative release rate [3, 8]: 45.97% | average iron release rate [3, 9]: 27.88% | average relative release rate [3, 9]: 55.33% | average iron release rate [3, 10]: 32.08% | average relative release rate [3, 10]: 63.67% | average iron release rate [3, 11]: 33.35% | average relative release rate [3, 11]: 66.18% | average iron release rate [3, 12]: 34.92% | average relative release rate [3, 12]: 69.30% | average iron release rate [3, 13]: 35.85% | average relative release rate [3, 13]: 71.14% | average iron release rate [3, 14]: 36.86% | average relative release rate [3, 14]: 73.15% | average iron release rate [3, 15]: 38.23% | average relative release rate [3, 15]: 75.86% | average iron release rate [3, 16]: 39.40% | average relative release rate [3, 16]: 78.18% | average iron release rate [3, 17]: 40.57% | average relative release rate [3, 17]: 80.51% | average iron release rate [3, 18]: 42.29% | average relative release rate [3, 18]: 83.93% | average iron release rate [3, 19]: 43.63% | average relative release rate [3, 19]: 86.59% | average iron release rate [3, 20]: 44.67% | average relative release rate [3, 20]: 88.66% | average iron release rate [3, 21]: 45.61% | average relative release rate [3, 21]: 90.52% | average iron release rate [3, 22]: 46.28% | average relative release rate [3, 22]: 91.85% | average iron release rate [3, 23]: 47.22% | average relative release rate [3, 23]: 93.72% | average iron release rate [3, 24]: 47.86% | average relative release rate [3, 24]: 94.99% | average iron release rate [3, 25]: 48.99% | average relative release rate [3, 25]: 97.23% | average iron release rate [3, 26]: 50.01% | average relative release rate [3, 26]: 99.24%

O.O.O.O.O.O.O.O=S(=O)([O-])[O-].[Fe+2] [ferrous sulfate, iron(II) sulfate heptahydrate]
iron ions naturally inhibited [4]: 49.61% | iron ions released after processing by gastric and intestinal fluid [4]: 50.39% | releasable iron concentration before adding the ascorbic acid iron [5]: 1.90 ppm | the most effective additive dosage for ascorbic acid iron [5]: 100 mg/100 ml | release promoting rate of iron ([5]; after/before adding the ascorbic acid iron): 389% | releasable iron concentration after adding the ascorbic acid iron ([5]; at the most effective additive dosage 100): 7.54 ppm | concentration of releasable iron ([6]; additive dosage of iron 10 ppm): 1.56 ppm | concentration of releasable iron ([6]; additive dosage of iron 20 ppm): 1.76 ppm | concentration of releasable iron ([6]; additive dosage of iron 30 ppm): 2.47 ppm | concentration of releasable iron ([6]; additive dosage of iron 40 ppm): 2.62 ppm | concentration of releasable iron ([6]; additive dosage of iron 50 ppm): 2.75 ppm | concentration of releasable iron ([6]; additive dosage of iron 60 ppm): 3.27 ppm | concentration of releasable iron ([6]; additive dosage of iron 70 ppm): 3.72 ppm | initially inhibiting concentration ([6]; point where releasable iron starts to rise with additive dosage): 20 ppm
